Assay results from PubChem BioAssay AID1117275 (Broad Institute, 2014).
Activity calls are given as the source filed them. How the calls were made is not given here.

Each compound was assayed on orthopoxvirus-infected cells, imaging factories/early/late reporters (assay: orthopoxvirus gene expression and factory inhibitors, imaging, high MOI, single point, dry powder (AID 1117275)). Settings: at 10 µM; stronger effect = higher value.

Q: `Cc1ccccc1-c1ccc(CN(C)C[C@@H]2Oc3cc(C#C[C@@H](C)O)ccc3S(=O)(=O)N([C@@H](C)CO)C[C@@H]2C)cc1` was tested. Which late gene expression activity score did it give?
A: Its late gene expression activity score is 67.

Q: How did the late gene expression activity score turn out when `Cc1ccc(-c2ccc(CN(C)C[C@@H]3Oc4cc(C#C[C@@H](C)O)ccc4S(=O)(=O)N([C@@H](C)CO)C[C@@H]3C)cc2)cc1` was run?
A: Its late gene expression activity score is 73.

Q: `C[C@@H](O)C#Cc1ccc2c(c1)O[C@@H](CN(C)Cc1ccc(-c3ccccc3)cc1)[C@@H](C)CN([C@@H](C)CO)S2(=O)=O` was tested. Which late gene expression activity score did it give?
A: The late gene expression activity score was 17 (inactive).

Q: How did the late gene expression activity score turn out when `C[C@@H](O)C#Cc1ccc2c(c1)O[C@@H](CN(C)Cc1ccc(-c3ccccc3Cl)cc1)[C@@H](C)CN([C@@H](C)CO)S2(=O)=O` was run?
A: The late gene expression activity score was 71.

Q: With `C[C@@H](O)C#Cc1ccc2c(c1)O[C@@H](CN(C)S(=O)(=O)c1ccc(-c3ccccc3)cc1)[C@@H](C)CN([C@@H](C)CO)S2(=O)=O` as the compound, how does the late gene expression activity score read?
A: The late gene expression activity score was 86.

Q: How did the late gene expression activity score turn out when `Cc1cccc(-c2ccc(CN(C)C[C@@H]3Oc4cc(C#C[C@@H](C)O)ccc4S(=O)(=O)N([C@@H](C)CO)C[C@@H]3C)cc2)c1` was run?
A: The late gene expression activity score was 78.
